From ChEMBL document CHEMBL3244346, “Synthesis of spiro[isobenzofuran-1(3H),4'-piperidines] as potential central nervous system agents. 4. Central nervous system depressants” (J Med Chem, 1978) come the findings set out here.

Data set [1] has as its system Squirrel monkey. The experiment in a line: Neuroleptic activity in squirrel monkey assessed as inhibition of Sidman avoidance at 10 mg/kg, po measured for 4 hrs. The data set is classed as functional. The note with it: Saimiri sciureus, in Primates.
In data set [2] the test system is Rattus norvegicus. Briefly: Neuroleptic activity in po dosed Sprague-Dawley rat assessed as inhibition of Sidman avoidance measured for 4 to 6 hrs. It counts as functional.
In data set [3] the test system is Rattus norvegicus. The experiment in a line: Non-specific toxicity in ip dosed Wistar rat assessed as inhibition of d-amphetamine sulfate-induced stereotypy administered 1 hr prior to d-amphetamine sulfate challenge measured after 55 to 65 mins. The data set is classed as organism-based. The note with it: in vivo.
In data set [4] the test system is Rattus norvegicus. Briefly: Non-specific toxicity in ip dosed Wistar rat assessed as inhibition of amphetamine-induced circling administered 60 mins prior to amphetamine challenge. The data set is classed as organism-based. The note with it: in vivo, 1 h.
Data set [5] deals with Rattus norvegicus. Briefly: Neuroleptic activity in ip dosed Long-Evans rat assessed as increase in escape failure. It counts as functional.
For data set [6], the system named is Rattus norvegicus. Briefly: Neuroleptic activity in ip dosed Long-Evans rat assessed as inhibition of pole-climb avoidance. The data set is classed as functional.
Data set [7] deals with Rattus norvegicus. Briefly: Neuroleptic activity in Sprague-Dawley rat assessed as inhibition of Sidman avoidance at 20 mg/kg, ip relative to control. It counts as functional. The note with it: route intraperitoneal.
For data set [8], the system named is Squirrel monkey. The experiment in a line: Neuroleptic activity in squirrel monkey assessed as inhibition of Sidman avoidance at 0.75 mg/kg, po measured for 4 hrs. The data set is classed as functional. The settings on record: Saimiri sciureus, in Primates.
In data set [9] the test system is Rattus norvegicus. Briefly: Non-specific toxicity in sc dosed Wistar rat assessed as inhibition of apomorphine hydrochloride-induced stereotypy administered 1 hr prior to apomorphine hydrochloride challenge measured after 5 to 20 mins. It counts as organism-based. The note with it: in vivo.
In data set [10] the test system is Canis familiaris. Briefly: Non-specific toxicity in po dosed Beagle dog assessed as inhibition of apomorphine hydrochloride-induced emesis. It counts as organism-based, Canis lupus familiaris. The settings on record: in vivo.
Data set [11] relates to Rattus norvegicus. The experiment in a line: Neuroleptic activity in ip dosed Sprague-Dawley rat assessed as inhibition of Sidman avoidance measured for 4 to 6 hrs. The data set is classed as functional.
The species named for data set [12] is Rattus norvegicus. The experiment in a line: animal or person. The settings on record: Sprague-Dawley, po, read-out: INH.
Description: Neuroleptic activity in Sprague-Dawley rat assessed as inhibition of Sidman avoidance at 1.25 mg/kg, po relative to control
Data set [13] has as its system Squirrel monkey. The experiment in a line: Neuroleptic activity in squirrel monkey assessed as inhibition of Sidman avoidance at 1 mg/kg, po measured for 4 hrs. It counts as functional. The note with it: Saimiri sciureus, in Primates.
The test system of data set [14] is Canis familiaris. The experiment in a line: Ratio of compound ED50 to haloperidol ED50 for non-specific toxicity in po dosed Beagle dog assessed as inhibition of apomorphine hydrochloride-induced emesis. The data set is classed as organism-based, Canis lupus familiaris. The settings on record: in vivo.
The subject of data set [15] is Rattus norvegicus. The experiment in a line: Non-specific toxicity in Wistar rat assessed as inhibition of apomorphine hydrochloride-induced stereotypy at 25 mg/kg, sc administered 1 hr prior to apomorphine hydrochloride challenge measured after 5 to 20 mins. It counts as organism-based. Also on record: dose 25 mg/kg, route subcutaneous. The settings on record: in vivo.

Data set [16] has as its system Squirrel monkey. The experiment in a line: Neuroleptic activity in squirrel monkey assessed as inhibition of Sidman avoidance at 2.5 mg/kg, po measured for 4 hrs. The data set is classed as functional. The settings on record: Saimiri sciureus, in Primates.
Data set [17] deals with Squirrel monkey. Briefly: Neuroleptic activity in squirrel monkey assessed as inhibition of Sidman avoidance at 5 mg/kg, po measured for 4 hrs. It counts as functional. The note with it: Saimiri sciureus, in Primates.
Data set [18] concerns Canis familiaris. Briefly: Non-specific toxicity in Beagle dog assessed as inhibition of apomorphine hydrochloride-induced emesis at 0.5 mg/kg, po. The data set is classed as organism-based. Also on record: dose 0.5 mg/kg, route oral. The settings on record: Canis lupus familiaris.
Data set [19] concerns Rattus norvegicus. The experiment in a line: Increase in amphetamine-induced circling in Wistar rat at 5 mg/kg, ip administered 60 mins prior to amphetamine challenge. The note with it: route intraperitoneal. The data set is classed as functional.
The test system of data set [20] is Squirrel monkey. The experiment in a line: Neuroleptic activity in squirrel monkey assessed as inhibition of Sidman avoidance at 20 mg/kg, po measured for 4 hrs. It counts as functional. The note with it: Saimiri sciureus, in Primates.
Data set [21] has as its system Squirrel monkey. The experiment in a line: Neuroleptic activity in squirrel monkey assessed as inhibition of Sidman avoidance at 20 mg/kg, po measured for 4 hrs in presence of anticholinergic agent benztropine. It counts as functional, organism-based. Also noted: dose 20 mg/kg. The note with it: Saimiri sciureus.
In data set [22] the test system is Rattus norvegicus. Briefly: Neuroleptic activity in po dosed Long-Evans rat assessed as inhibition of pole-climb avoidance. The data set is classed as functional.
In data set [23] the test system is Rattus norvegicus. Briefly: Neuroleptic activity in po dosed Long-Evans rat assessed as increase in escape failure. The data set is classed as functional.
The subject of data set [24] is Rattus norvegicus. The experiment in a line: Neuroleptic activity in Long-Evans rat assessed as inhibition of pole-climb avoidance at 5 mg/kg, ip relative to control. The data set is classed as functional. The note with it: route intraperitoneal.

Active and inactive are the calls of the source. The calls are words filed in the database; no cut-off is given here.

On to `COc1ccc2c(c1)C1(CCN(CCCC(=O)c3ccc(F)cc3)CC1)OC2c1ccccc1` (configuration not stated), for which the inhibition in vivo at 10 mg/kg with Squirrel monkey [1] stood at 77%. Also, the 50% effective dose (ED50) (as a rule, the dose that gives a 50% effect, or the effect in half of the subjects) with Rattus norvegicus [2] is above 10 mg/kg.
As for `CSc1ccc2c(c1)N(CCC1CCCCN1C)c1ccccc1S2` (configuration not stated) [THIORIDAZINE], the ED50 is 15.8 mg/kg with Rattus norvegicus [3], 13.3 mg/kg in the data set with Rattus norvegicus [4], above 60 mg/kg in the data set on Rattus norvegicus [5] and 13.8 mg/kg in the data set on Rattus norvegicus [6]. For the same molecule, in the data set with Rattus norvegicus [7], the inhibition in vivo at 20 mg/kg came to 15%.
Turning to `O=C(CCCN1CCC(O)(c2ccc(Cl)cc2)CC1)c1ccc(F)cc1` [HALOPERIDOL], the ED50 with Rattus norvegicus [3] came to 0.21 mg/kg; in the data set on Rattus norvegicus [4], 0.1 mg/kg; in the data set with Rattus norvegicus [9], 0.2 mg/kg; in the data set on Canis familiaris [10], 0.06 mg/kg; in the data set on Rattus norvegicus [5] it was 7.3 mg/kg; with Rattus norvegicus [6] it was 0.53 mg/kg. Besides, the ED50 in the data set with Rattus norvegicus [11] came to 0.35 mg/kg. For the same molecule, in the data set on Squirrel monkey [8], the inhibition in vivo at 0.75 mg/kg worked out at 2%. Further, the inhibition in vivo at 1.25 mg/kg in the data set listed under Rattus norvegicus [12] worked out at 50%. Besides, the inhibition in vivo at 1 mg/kg in the data set with Squirrel monkey [13] stood at 30%.
For `O=C(CCCN1CCC2(CC1)OC(c1ccccc1)c1ccc(F)cc12)c1ccc(F)cc1` (configuration not stated), the ED50 in the data set on Rattus norvegicus [4] was 4.6 mg/kg; in the data set on Canis familiaris [10], 0.047 mg/kg; with Rattus norvegicus [5], 31.1 mg/kg; in the data set on Rattus norvegicus [6] it was 0.95 mg/kg; in the data set on Rattus norvegicus [11], 2.7 mg/kg.
For `COc1ccc2c(c1)C(c1ccccc1)OC21CCN(CCCC(=O)c2ccc(F)cc2)CC1` (configuration not stated), the ED50 with Rattus norvegicus [3] is 6.97 mg/kg; with Rattus norvegicus [4] it was 9.9 mg/kg; in the data set with Canis familiaris [10], above 1 mg/kg; with Rattus norvegicus [5], above 40 mg/kg; with Rattus norvegicus [6], 9.8 mg/kg; in the data set on Rattus norvegicus [11], 9.5 mg/kg. For the same molecule, the “Ratio ED50” value in the data set on Canis familiaris [14] is recorded as 10. Also, the Activity entry in the data set with Rattus norvegicus [15] is “Non-toxic”. In addition, the inhibition in vivo at 2.5 mg/kg in the data set on Squirrel monkey [16] was 29%.
`CN(C)CCCN1c2ccccc2Sc2ccc(Cl)cc21` [CHLORPROMAZINE]: the ED50 is 1.7 mg/kg in the data set with Rattus norvegicus [3]; 2.2 mg/kg with Rattus norvegicus [4]; 5.4 mg/kg with Rattus norvegicus [9]; 12.8 mg/kg in the data set on Canis familiaris [10]; 9 mg/kg in the data set with Rattus norvegicus [5]; 5.2 mg/kg with Rattus norvegicus [6]. The ED50 with Rattus norvegicus [2] turned out to be 7.5 mg/kg; with Rattus norvegicus [11] it was 2.3 mg/kg. In addition, the inhibition in vivo at 5 mg/kg in the data set on Squirrel monkey [17] was 54%. Moreover, in the data set with Squirrel monkey [16], the inhibition in vivo at 2.5 mg/kg was 11%.
For `COc1ccc(C2OC3(CCN(CCCC(=O)c4ccc(F)cc4)CC3)c3ccccc32)cc1` (configuration not stated), the ED50 in the data set with Rattus norvegicus [4] is 10.2 mg/kg; in the data set with Canis familiaris [10] it was 0.16 mg/kg; with Rattus norvegicus [5], above 40 mg/kg; in the data set with Rattus norvegicus [6] it was 17.2 mg/kg; with Rattus norvegicus [2], 3 mg/kg.
For `O=C(CCCN1CCC2(CC1)OC(c1ccc(F)cc1)c1ccc(F)cc12)c1ccc(F)cc1` (configuration not stated), the ED50 with Rattus norvegicus [4] is 9.7 mg/kg; in the data set on Rattus norvegicus [5] it was above 40 mg/kg; with Rattus norvegicus [6] it was 18.6 mg/kg; with Rattus norvegicus [2], 2.2 mg/kg. Moreover, the inhibition – broadly, the drop in the measured response relative to a control, in per cent – at 0.5 mg/kg with Canis familiaris [18] was found to be 50%. The “Ratio ED50” value with Canis familiaris [14] came out at 10.
For the molecule `CCCC(C)C1(CC)C(=O)N=C([O-])NC1=O.[Na+]` (configuration not stated) [PENTOBARBITAL SODIUM], the ED50 with Rattus norvegicus [5] was 24.1 mg/kg; in the data set on Rattus norvegicus [6] it was 23.7 mg/kg.
The matching figures for `CN1C(=O)CN=C(c2ccccc2)c2cc(Cl)ccc21` [DIAZEPAM]: 24.5 mg/kg and 13.4 mg/kg.
For the molecule `O=C(CCCN1CCC2(CC1)OC(c1ccc(Cl)cc1)c1ccccc12)c1ccc(F)cc1` (configuration not stated), the ED50 in the data set with Canis familiaris [10] was above 10 mg/kg; in the data set on Rattus norvegicus [6], above 20 mg/kg; with Rattus norvegicus [11] it was above 10 mg/kg. The molecule also came in with an Activity with Rattus norvegicus [19] of 47%.
Consider `O=C(CCCN1CCC2(CC1)OC(c1ccccc1)c1ccccc12)c1ccc(F)cc1` (configuration not stated), for which the ED50 was 2.6 mg/kg in the data set with Rattus norvegicus [4]; 0.15 mg/kg in the data set on Canis familiaris [10]; above 40 mg/kg in the data set on Rattus norvegicus [5]; 8.6 mg/kg in the data set with Rattus norvegicus [6]; 4.8 mg/kg in the data set on Rattus norvegicus [2]; 6.2 mg/kg in the data set with Rattus norvegicus [11].
In the case of `O=C(CCCN1CCC2(CC1)OC(c1ccc(F)cc1)c1ccccc12)c1ccc(F)cc1` (configuration not stated), the ED50 with Rattus norvegicus [3] is 11.8 mg/kg; with Rattus norvegicus [4] it was 11.9 mg/kg; in the data set on Canis familiaris [10], above 5 mg/kg; in the data set on Rattus norvegicus [22], 4.3 mg/kg; with Rattus norvegicus [2] it was 3.7 mg/kg; with Rattus norvegicus [23], 16.2 mg/kg. For the same molecule, in the data set with Squirrel monkey [1], the inhibition in vivo at 10 mg/kg was 17%. Further, in the data set on Squirrel monkey [20], the inhibition in vivo at 20 mg/kg came out at 90%. Further, the inhibition in vivo at 5 mg/kg with Squirrel monkey [17] turned out to be 21%. In addition, in the data set with Canis familiaris [14], the “Ratio ED50” value stood at 10. In addition, the inhibition entry in the data set on Squirrel monkey [21] was “inactive”. For the same molecule, the Activity result in the data set with Rattus norvegicus [15] is listed as “Non-toxic”.
For the molecule `O=C(CCCN1CCC2(CC1)OC(c1ccccc1)c1ccc(Cl)cc12)c1ccc(F)cc1` (configuration not stated), the ED50 turned out to be 3.5 mg/kg in the data set on Rattus norvegicus [4], 0.05 mg/kg in the data set on Canis familiaris [10] and 2.3 mg/kg in the data set on Rattus norvegicus [11]. The inhibition in vivo at 5 mg/kg in the data set with Rattus norvegicus [24] was 47%.
